Reference: the NIST ThermoML archive (doi:10.1021/je800026p)
± gives the expanded uncertainty stated by the source.

Assay: xn = mol fraction of the nth substance listed
Conditions: 101 kPa, Liquid; for speed of sound: Sing-around technique in a fixed-path interferometer; for mass density: Vibrating tube method

CCCCCCOCCOCCO [2-(2-hexyloxyethoxy)ethanol] + CCCCNCCCC
Conditions | mass density, 288.15 K [kg/m3] | mass density, 293.15 K [kg/m3] | speed of sound, 288.15 K [m/s] | speed of sound, 293.15 K [m/s] | speed of sound, 298.15 K [m/s]
x1 = 0.0974 | 787.886 ± 0.62 | 783.751 ± 0.61 | 1301.4 ± 2.1 | 1282.3 ± 2.1 | 1262.9 ± 2.1
x1 = 0.1441 | 798.114 ± 0.62 | 793.988 ± 0.62 | 1308.1 ± 2.1 | 1289.2 ± 2.1 | 1270.5 ± 2.1
x1 = 0.1908 | 808.103 ± 0.64 | 804 ± 0.63 | 1314.8 ± 2.1 | 1296 ± 2.1 | 1277.8 ± 2.1
x1 = 0.253 | 820.984 ± 0.65 | 816.934 ± 0.64 | 1323.5 ± 2.1 | 1304.8 ± 2.1 | 1287 ± 2.1
x1 = 0.2986 | 830.092 ± 0.66 | 826.059 ± 0.65 | 1329.8 ± 2.1 | 1311.2 ± 2.1 | 1293.6 ± 2.1
x1 = 0.3606 | 842 ± 0.67 | 837.97 ± 0.66 | 1338 ± 2.1 | 1319.7 ± 2.1 | 1302.1 ± 2.1
x1 = 0.4018 | 849.578 ± 0.67 | 845.585 ± 0.67 | 1343.4 ± 2.1 | 1325.2 ± 2.1 | 1307.6 ± 2.1
x1 = 0.4584 | 859.635 ± 0.68 | 855.602 ± 0.68 | 1350.4 ± 2.1 | 1332.6 ± 2.1 | 1315 ± 2.1
x1 = 0.5091 | 868.247 ± 0.69 | 864.218 ± 0.69 | 1356.7 ± 2.1 | 1339 ± 2.1 | 1321.3 ± 2.1
x1 = 0.5435 | 873.936 ± 0.7 | 869.891 ± 0.69 | 1360.8 ± 2.1 | 1343.2 ± 2.1 | 1325.7 ± 2.1
x1 = 0.587 | 880.891 ± 0.7 | 876.847 ± 0.7 | 1365.8 ± 2.1 | 1348.4 ± 2.1 | 1330.9 ± 2.1
x1 = 0.6097 | 884.459 ± 0.71 | 880.409 ± 0.7 | 1368.4 ± 2.1 | 1351 ± 2.1 | 1333.6 ± 2.1
x1 = 0.6572 | 891.716 ± 0.72 | 887.648 ± 0.71 | 1373.6 ± 2.1 | 1356.4 ± 2.1 | 1339 ± 2.1
x1 = 0.7023 | 898.412 ± 0.72 | 894.343 ± 0.72 | 1378.3 ± 2.1 | 1361.3 ± 2.1 | 1344.1 ± 2.1
x1 = 0.7451 | 904.586 ± 0.73 | 900.53 ± 0.72 | 1382.7 ± 2.1 | 1365.7 ± 2.1 | 1348.6 ± 2.1
x1 = 0.8144 | 914.195 ± 0.74 | 910.151 ± 0.74 | 1389.4 ± 2.1 | 1372.4 ± 2.1 | 1355.5 ± 2.1
x1 = 0.8675 | 921.188 ± 0.75 | 917.168 ± 0.74 | 1394.2 ± 2.1 | 1377.2 ± 2.1 | 1360.3 ± 2.1
x1 = 0.9083 | 926.329 ± 0.75 | 922.317 ± 0.75 | 1397.7 ± 2.1 | 1380.6 ± 2.1 | 1363.7 ± 2.1
x1 = 0.9414 | 930.322 ± 0.76 | 926.329 ± 0.75 | 1400.4 ± 2.1 | 1383.2 ± 2.1 | 1366.2 ± 2.1
